Test results: the NIST ThermoML archive (doi:10.1016/j.jct.2009.05.004)

Experiment: mn = molality of the nth substance listed, in mol/kg
Conditions: Liquid, Vibrating tube method

[Br-].[Br-].[Zn+2] [zinc bromide] + CCO
Conditions | mass density [kg/m3]
333.15 K, 25621 kPa, m1 = 0.3043 | 825.37
333.15 K, 29810 kPa, m1 = 0.4384 | 848.46
333.15 K, 29875 kPa, m1 = 1.49 | 995.4
333.15 K, 29941 kPa, m1 = 0.05681 | 791.79
333.15 K, 34256 kPa, m1 = 0.3043 | 832.31
333.15 K, 34920 kPa, m1 = 0.4384 | 852.42
333.15 K, 34965 kPa, m1 = 1.49 | 999.47
333.15 K, 39957 kPa, m1 = 1.49 | 1003.26
333.16 K, 1604 kPa, m1 = 1.887 | 1020.71
333.16 K, 5024 kPa, m1 = 0.3043 | 806.15
333.16 K, 10325 kPa, m1 = 0.3043 | 811.46
333.16 K, 14730 kPa, m1 = 0.4384 | 835.35
333.16 K, 14913 kPa, m1 = 0.9305 | 905.9
333.16 K, 15014 kPa, m1 = 0.05681 | 778.76
333.16 K, 29941 kPa, m1 = 0.3043 | 828.93
333.16 K, 30014 kPa, m1 = 1.887 | 1047.6
333.16 K, 35068 kPa, m1 = 0.05681 | 795.79
333.16 K, 39745 kPa, m1 = 0.3043 | 836.38
333.16 K, 39787 kPa, m1 = 0.1696 | 816.47
333.16 K, 39824 kPa, m1 = 0.4384 | 855.99
333.17 K, 1074 kPa, m1 = 0.4384 | 821.64
333.17 K, 25080 kPa, m1 = 0.9305 | 915
333.17 K, 39803 kPa, m1 = 0.9305 | 926.52
333.17 K, 39921 kPa, m1 = 0.05681 | 799.36
333.18 K, 9721 kPa, m1 = 0.1696 | 791.08
333.18 K, 14944 kPa, m1 = 0.1696 | 796.06
333.18 K, 19908 kPa, m1 = 0.1696 | 800.57
333.18 K, 19971 kPa, m1 = 1.887 | 1038.86
333.18 K, 25143 kPa, m1 = 1.887 | 1043.47
333.18 K, 29806 kPa, m1 = 0.1696 | 808.92
333.18 K, 34946 kPa, m1 = 0.1696 | 812.92
333.2 K, 24905 kPa, m1 = 0.1696 | 804.89
353.12 K, 1215 kPa, m1 = 0.1696 | 762.79
353.12 K, 4885 kPa, m1 = 0.9305 | 876.1
353.12 K, 24736 kPa, m1 = 0.4384 | 827.02
353.12 K, 29724 kPa, m1 = 0.4384 | 831.58
353.12 K, 34818 kPa, m1 = 0.1696 | 796.87
353.12 K, 40086 kPa, m1 = 0.9305 | 910.04
353.13 K, 19976 kPa, m1 = 0.4384 | 822.41
353.13 K, 29922 kPa, m1 = 1.887 | 1029.35
353.13 K, 34919 kPa, m1 = 0.9305 | 905.88
353.13 K, 35245 kPa, m1 = 0.05681 | 780.23
353.14 K, 5032 kPa, m1 = 0.3043 | 786.89
353.14 K, 5065 kPa, m1 = 0.05681 | 750.01
353.14 K, 9866 kPa, m1 = 0.1696 | 772.71
353.14 K, 9945 kPa, m1 = 1.887 | 1009.26
353.14 K, 19983 kPa, m1 = 0.1696 | 783.31
353.14 K, 25841 kPa, m1 = 0.3043 | 808.62
353.14 K, 34738 kPa, m1 = 1.887 | 1033.52
353.14 K, 39852 kPa, m1 = 0.3043 | 820.61
353.15 K, 1306 kPa, m1 = 0.9305 | 871.91
353.15 K, 1451 kPa, m1 = 0.05681 | 745.7
353.15 K, 1574 kPa, m1 = 0.3043 | 782.83
353.15 K, 1687 kPa, m1 = 1.49 | 948.01
353.15 K, 5032 kPa, m1 = 1.49 | 951.99
353.15 K, 10024 kPa, m1 = 0.05681 | 755.67
353.15 K, 10024 kPa, m1 = 1.49 | 957.68
353.15 K, 10145 kPa, m1 = 0.3043 | 792.67
353.15 K, 15624 kPa, m1 = 1.49 | 963.72
353.15 K, 19924 kPa, m1 = 0.05681 | 766.16
353.15 K, 19957 kPa, m1 = 1.49 | 968.14
353.15 K, 20412 kPa, m1 = 0.3043 | 803.4
353.15 K, 25214 kPa, m1 = 1.49 | 973.21
353.15 K, 29658 kPa, m1 = 1.49 | 977.25
353.15 K, 29952 kPa, m1 = 0.3043 | 812.36
353.15 K, 30014 kPa, m1 = 0.05681 | 775.72
353.15 K, 34984 kPa, m1 = 1.49 | 981.78
353.15 K, 39958 kPa, m1 = 1.49 | 985.72
353.15 K, 39984 kPa, m1 = 0.05681 | 784.05
353.16 K, 4839 kPa, m1 = 0.1696 | 767.04
353.16 K, 9987 kPa, m1 = 0.9305 | 881.84
353.16 K, 15412 kPa, m1 = 0.05681 | 761.52
353.16 K, 15624 kPa, m1 = 0.3043 | 798.54
353.16 K, 24888 kPa, m1 = 0.1696 | 788.05
353.16 K, 34658 kPa, m1 = 0.3043 | 816.41
353.16 K, 34826 kPa, m1 = 0.4384 | 835.96
353.16 K, 39714 kPa, m1 = 1.887 | 1037.55
353.17 K, 4861 kPa, m1 = 0.4384 | 806.08
353.17 K, 14799 kPa, m1 = 0.1696 | 778.02
353.17 K, 14872 kPa, m1 = 1.887 | 1014.63
353.17 K, 19935 kPa, m1 = 0.9305 | 892.23
353.17 K, 24932 kPa, m1 = 0.05681 | 771.05
353.17 K, 29746 kPa, m1 = 0.1696 | 792.5
353.17 K, 39702 kPa, m1 = 0.1696 | 800.82
353.18 K, 9743 kPa, m1 = 0.4384 | 811.63
353.18 K, 14964 kPa, m1 = 0.9305 | 887.17
353.18 K, 29738 kPa, m1 = 0.9305 | 901.43
353.19 K, 1518 kPa, m1 = 0.4384 | 802.12
353.19 K, 19828 kPa, m1 = 1.887 | 1019.76
353.19 K, 24834 kPa, m1 = 0.9305 | 896.96
353.19 K, 39796 kPa, m1 = 0.4384 | 839.94
353.2 K, 1878 kPa, m1 = 1.887 | 999.87
353.2 K, 4878 kPa, m1 = 1.887 | 1003.45
353.2 K, 24815 kPa, m1 = 1.887 | 1024.64
353.21 K, 14513 kPa, m1 = 0.4384 | 816.8
373.12 K, 1190 kPa, m1 = 0.4384 | 780.46
373.12 K, 1697 kPa, m1 = 1.887 | 977.46
373.12 K, 5014 kPa, m1 = 1.887 | 981.85
373.12 K, 9878 kPa, m1 = 0.4384 | 791.75
373.12 K, 29863 kPa, m1 = 0.1696 | 775.41
373.12 K, 29926 kPa, m1 = 1.887 | 1010.28
373.12 K, 29956 kPa, m1 = 0.4384 | 814.15
373.13 K, 4952 kPa, m1 = 0.05681 | 729.35
373.13 K, 4965 kPa, m1 = 0.1696 | 746.64
373.13 K, 9897 kPa, m1 = 1.887 | 988.07
373.13 K, 14946 kPa, m1 = 1.887 | 994.16
373.13 K, 20065 kPa, m1 = 1.887 | 1000
373.13 K, 24795 kPa, m1 = 0.4384 | 808.88
373.13 K, 24847 kPa, m1 = 0.1696 | 770.29
373.14 K, 1612 kPa, m1 = 0.1696 | 742.13
